Structures can show the parent of a compound that is named as a salt. Where two headings read alike, the source gives them in different places.
Assays:
[1] = tested on: drug-resistant HIV-1 isolates; assay: Anti-HIV efficacy in fresh human PBMCs, drug-resistant HIV-1 isolates; details: for IC50: Human immunodeficiency virus 1, PBMC, in Homo sapiens
[2] = tested on: HIV-1 macrophage-tropic virus strains
[3] = MTS cytotoxicity in monocyte/macrophage cultures; assay type: cell-based; details: human
Protocol: (§1) Anti-HIV Efficacy Evaluation in Fresh Human Monocyte/Macrophage. Monocytes/macrophages were allowed to adhere to the interior 60 wells of a 96 well flat bottomed plate for 2 to 18 hours at 37° C., 5% CO2. Following 6 to 14 days in culture, the monocyte/macrophage cultures were washed 3 times to remove any non-adherent cells and serially diluted test compounds were added followed by the addition of a pre-titered amount of HIV. Cultures were washed a final time by media removal 24 hours post infection, fresh compound added and the cultures continued for an additional six days. […] At assay termination, virus replication was measured by collecting cell-free supernatant samples which were analyzed for HIV p24 antigen content using a commercially available p24 ELISA assay (Coulter). […] MTS staining for PBMC viability to measure cytotoxicity. […] The mitochondrial enzymes of metabolically active cells metabolize MTS to yield a soluble formazan product. This allows the rapid quantitative analysis of cell viability and compound cytotoxicity. […] At termination of the assay, 20 μL of MTS reagent was added per well. The microtiter plates were then incubated 4-6 hrs at 37° C. The incubation intervals were chosen based on empirically determined times for optimal dye reduction. […] Data analysis.

human PBMCs [4] = details: 7 days
[5] = MTS staining for PBMC viability (cytotoxicity); details: human
human PBMCs [6] = assay: MTS staining for PBMC viability (cytotoxicity); details: read-out: TC50, PBMCs, MTS
HIV-1 clinical isolates [7] = assay: microbe, parasite or virus in culture; details: Human immunodeficiency virus 1, PBMC
[8] = tested on: HIV-1 macrophage-tropic virus strains; assay: microbe, parasite or virus in culture
HIV-1 clinical isolates [9] = tested on: HIV-1 clinical isolates
HIV-2 CDC 310319 [10] = assay: microbe, parasite or virus in culture; details: Human immunodeficiency virus 2, PBMC
in vitro = details: human
[11] = tested on: human monocytes/macrophages; assay: MTS cytotoxicity in monocyte/macrophage cultures; assay type: cell-based; details: 7 days
Protocol: as §1

HIV-2 CDC 310319 [12] = details: HIV-2 CDC 310319 in PBMCs
[13] = HIV-1 52-52 (protease-inhibitor resistant) in PBMCs
[14] = against several viruses (e.g., MDR 1385, MDR 3761) in PBMCs
[15] = multi-drug-resistant HIV-1 MDR 769 in PBMCs
[16] = multi-drug-resistant HIV-1 MDR 807 in PBMCs
[17] = multi-drug-resistant HIV-1 MDR 1385 in PBMCs
[18] = multi-drug-resistant HIV-1 MDR 3761 in PBMCs
[19] = HIV-1 96USHIPS7 (subtype /B, R5) in PBMCs
[20] = HIV-1 BR/92/021 (subtype B/B, R5) in PBMCs
[21] = HIV-1 BR/93/017 (subtype B/B, R5) in PBMCs
[22] = HIV-1 BR/93/020 (subtype F/F, R5/X4) in PBMCs
[23] = HIV-1 BR/93/022 (subtype /B, R5) in PBMCs
[24] = HIV-1 CMU 02 (subtype /EA, X4) in PBMCs
[25] = HIV-1 JV 1083 (subtype /G, R5) in PBMCs
[26] = HIV-1 RW/92/016 (subtype A/A, R5) in PBMCs
[27] = HIV-1 UG/92/046 (subtype D/D, X4) in PBMCs

Q: Which results are given for `O=C1Nc2ccc(Cl)cc2[C@@](C#CC2CC2)(C(F)(F)F)O1` [Efavirenz, efavirenz]?
A: TI (TC50/IC50) ([1]; HIV-1 52-52 in PBMCs): >9901.0; TI (TC50/IC50) ([1]; HIV-1 144-44 in PBMCs): >1666.7; TI (TC50/IC50) ([1]; HIV-1 1002-60 in PBMCs): >4761.9; TI (TC50/IC50) ([1]; HIV-1 1064-52 in PBMCs): >3448.3; TI (TC50/IC50) ([1]; HIV-1 MDR 769 in PBMCs): >1851.9; TI (TC50/IC50) ([1]; HIV-1 MDR 807 in PBMCs): >1408.5; IC50 [1, 13]: < 0.1 nM; IC50 [1, 14]: > 1000 nM; IC50 [1, 15]: 0.54 nM; IC50 [1, 16]: 0.71 nM; IC50 [1, 17]: > 1000 nM; IC50 [1, 18]: > 1000 nM; TI (TC50/IC50) ([2]; HIV-1 ADA in macrophages): >2793.3; TI (TC50/IC50) ([2]; HIV-1 Ba-L in macrophages): >4717.0; CC50 at 7 days ([3]; fresh adherent monocyte/macrophage cultures, HIV-infected, macrophages, ADA assay, MTS, read-out: TC50): > 10000 nM; CC50 at 7 days ([3]; fresh adherent monocyte/macrophage cultures, HIV-infected, macrophages, Ba-L assay, MTS, read-out: TC50): > 10000 nM; CC50 (human PBMCs [4]): > 1000 nM; CC50 at 7 days [5]: > 1000 nM; CC50 (human PBMCs [6]; 52-52 assay): > 1000 nM; CC50 (human PBMCs [6]; 144-44 assay): > 1000 nM; CC50 (human PBMCs [6]; 1002-60 assay): > 1000 nM; CC50 (human PBMCs [6]; 1064-52 assay): > 1000 nM; CC50 (human PBMCs [6]; BFC01 assay): > 1000 nM; CC50 (human PBMCs [6]; BR/92/021 assay): > 1000 nM; CC50 (human PBMCs [6]; BR/92/025 assay): > 1000 nM; CC50 (human PBMCs [6]; BR/93/017 assay): > 1000 nM; CC50 (human PBMCs [6]; BR/93/020 assay): > 1000 nM; CC50 (human PBMCs [6]; BR/93/022 assay): > 1000 nM; CC50 (human PBMCs [6]; CMU 02 assay): > 1000 nM; CC50 (human PBMCs [6]; HIV-2 CDC 310319 assay): > 1000 nM; CC50 (human PBMCs [6]; JV 1083 assay): > 1000 nM; CC50 (human PBMCs [6]; RW/92/016 assay): > 1000 nM; CC50 (human PBMCs [6]; UG/92/046 assay): > 1000 nM; IC50 (HIV-1 clinical isolates [7]; [19]): 0.65 nM; IC50 (HIV-1 clinical isolates [7]; [20]): 47 nM; IC50 (HIV-1 clinical isolates [7]; [21]): 0.58 nM; IC50 (HIV-1 clinical isolates [7]; [22]): 0.32 nM; IC50 (HIV-1 clinical isolates [7]; [23]): 0.62 nM; IC50 (HIV-1 clinical isolates [7]; [24]): 1.82 nM; IC50 (HIV-1 clinical isolates [7]; [25]): 0.65 nM; IC50 (HIV-1 clinical isolates [7]; [26]): 0.61 nM; IC50 (HIV-1 clinical isolates [7]; [27]): 1.19 nM; IC50 ([8]; Human immunodeficiency virus 1, BAL, Macrophage): 2.12 nM; IC50 ([8]; Human immunodeficiency virus 1, Macrophage): 3.58 nM; TI (TC50/IC50) (HIV-1 clinical isolates [9]; HIV-1 96USHIPS7 in PBMCs): >1538.5; TI (TC50/IC50) (HIV-1 clinical isolates [9]; HIV-1 BFC01 in PBMCs): >1449.3; TI (TC50/IC50) (HIV-1 clinical isolates [9]; HIV-1 BR/92/021 in PBMCs): >21.3; TI (TC50/IC50) (HIV-1 clinical isolates [9]; HIV-1 BR/92/025 in PBMCs): >3333.3; TI (TC50/IC50) (HIV-1 clinical isolates [9]; HIV-1 BR/93/017 in PBMCs): >1724.1; TI (TC50/IC50) (HIV-1 clinical isolates [9]; HIV-1 BR/93/020 in PBMCs): >3125.0; TI (TC50/IC50) (HIV-1 clinical isolates [9]; HIV-1 BR/93/022 in PBMCs): >1612.9; TI (TC50/IC50) (HIV-1 clinical isolates [9]; HIV-1 CMU 02 in PBMCs): >549.5; TI (TC50/IC50) (HIV-1 clinical isolates [9]; HIV-1 JV 1083 in PBMCs): >1538.5; TI (TC50/IC50) (HIV-1 clinical isolates [9]; HIV-1 RW/92/016 in PBMCs): >1639.3; TI (TC50/IC50) (HIV-1 clinical isolates [9]; HIV-1 UG/92/046 in PBMCs): >840.3; IC50 (HIV-2 CDC 310319 [10]): > 1000 nM

Q: What does the source list for `Cc1c(O)cccc1C(=O)N[C@@H](CSc1ccccc1)[C@H](O)CN1C[C@H]2CCCC[C@H]2C[C@H]1C(=O)NC(C)(C)C` [Nelfinavir, nelfinavir mesylate]?
A: CC50 (in vitro): > 1000 nM; CC50 at 7 days (in vitro): > 1000 nM; TI (TC50/IC50) ([1]; HIV-1 52-52 in PBMCs): >10.5; TI (TC50/IC50) ([1]; HIV-1 144-44 in PBMCs): >6.05; TI (TC50/IC50) ([1]; HIV-1 1064-52 in PBMCs): >1.19; TI (TC50/IC50) ([1]; HIV-1 MDR 807 in PBMCs): >7.41; IC50 [1, 13]: 95 nM; IC50 [1, 14]: > 1000 nM; IC50 [1, 15]: > 1000 nM; IC50 [1, 16]: 135 nM; IC50 [1, 17]: > 1000 nM; IC50 [1, 18]: > 1000 nM; TI (TC50/IC50) ([2]; HIV-1 ADA in macrophages): >221.2; TI (TC50/IC50) ([2]; HIV-1 Ba-L in macrophages): >275.5; CC50 at 7 days ([3]; TC50): > 10000 nM; CC50 [11]: > 10000 nM; CC50 (human PBMCs [4]): > 1000 nM; CC50 (human PBMCs [6]; MDR 807 assay): > 1000 nM; CC50 (human PBMCs [6]; MDR 1385 assay): > 1000 nM; CC50 (human PBMCs [6]; MDR 3761 assay): > 1000 nM; IC50 (HIV-1 clinical isolates [7]; [19]): 25.8 nM; IC50 (HIV-1 clinical isolates [7]; [20]): 70.5 nM; IC50 (HIV-1 clinical isolates [7]; [21]): 2.05 nM; IC50 (HIV-1 clinical isolates [7]; [22]): 16.4 nM; IC50 (HIV-1 clinical isolates [7]; [23]): 20.1 nM; IC50 (HIV-1 clinical isolates [7]; [24]): 22.7 nM; IC50 (HIV-1 clinical isolates [7]; [25]): 14 nM; IC50 (HIV-1 clinical isolates [7]; [26]): 13.4 nM; IC50 (HIV-1 clinical isolates [7]; [27]): 27.7 nM; IC50 ([8]; Human immunodeficiency virus 1, BAL, Macrophage, in Homo sapiens, HIV-1 Ba-L in macrophages): 36.3 nM; IC50 ([8]; Human immunodeficiency virus 1, Macrophage, in Homo sapiens, HIV-1 ADA in macrophages): 45.2 nM; TI (TC50/IC50) (HIV-1 clinical isolates [9]; HIV-1 96USHIPS7 in PBMCs): >38.8; TI (TC50/IC50) (HIV-1 clinical isolates [9]; HIV-1 BFC01 in PBMCs): >1010.1; TI (TC50/IC50) (HIV-1 clinical isolates [9]; HIV-1 BR/92/021 in PBMCs): >14.2; TI (TC50/IC50) (HIV-1 clinical isolates [9]; HIV-1 BR/92/025 in PBMCs): >9901.0; TI (TC50/IC50) (HIV-1 clinical isolates [9]; HIV-1 BR/93/017 in PBMCs): >487.8; TI (TC50/IC50) (HIV-1 clinical isolates [9]; HIV-1 BR/93/020 in PBMCs): >61.0; TI (TC50/IC50) (HIV-1 clinical isolates [9]; HIV-1 BR/93/022 in PBMCs): >49.8; TI (TC50/IC50) (HIV-1 clinical isolates [9]; HIV-1 CMU 02 in PBMCs): >44.1; TI (TC50/IC50) (HIV-1 clinical isolates [9]; HIV-1 JV 1083 in PBMCs): >71.4; TI (TC50/IC50) (HIV-1 clinical isolates [9]; HIV-1 RW/92/016 in PBMCs): >74.6; TI (TC50/IC50) (HIV-1 clinical isolates [9]; HIV-1 UG/92/046 in PBMCs): >36.1; IC50 (HIV-2 CDC 310319 [10]): 16.1 nM; TI (TC50/IC50) (HIV-2 CDC 310319 [12]): >62.1
